Assay results from patent US20260285846A1, “REV-ERB AGONISTS FOR TH17-MEDIATED INFLAMMATORY DISORDERS” (UNIVERSITY OF FLORID RESEARCH FOUNDATION, iNCORPORATED, priority 2021, published 2026).
pEC50: −log10 of the molar value.

Target: REV-ERBα LBD (Homo sapiens, UniProt P20393, DEL324-422)
Test: biochemical
Conditions: FRET assay; 6xHistag-REV-ERBα LBD with FITC-labeled SMRT corepressor peptide; read-out: REVERBα (Agonism of REV-ERBα, EC50)
Procedure, shortened: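 Serially diluted ligands were incubated 2 h at 4° C, in triplicate, with E. coli-expressed His-REV-ERBα LBD (281-614 Δ324-422 or 381-579; 4 nM), Tb-anti-His (1 nM) and FITC-labelled SMRT peptide (400 nM). EC50 came from sigmoidal fits of the 520/495 nm TR-FRET ratio.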

Chain of REV-ERBα LBD (P20393 with tags, fused parts or gaps DEL324-422): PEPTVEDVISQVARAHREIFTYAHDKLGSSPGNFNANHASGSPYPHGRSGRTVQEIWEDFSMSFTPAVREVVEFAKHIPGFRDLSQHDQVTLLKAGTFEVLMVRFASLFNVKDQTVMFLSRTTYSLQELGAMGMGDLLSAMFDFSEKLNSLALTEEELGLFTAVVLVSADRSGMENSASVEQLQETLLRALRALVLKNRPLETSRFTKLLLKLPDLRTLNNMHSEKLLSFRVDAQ
Chain of REV-ERBα LBD (Q9Y618 2335-2356 partner limits assumed): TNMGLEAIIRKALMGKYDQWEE

Structure (SMILES)	pEC50
CC(C)(C)Cn1cc([C@H](NS(=O)(=O)C2CC(F)C2)C(F)F)c2ccc(-c3ccccc3C(F)(F)F)cc21 (stereo partly drawn) [Compound 22, (S)—N-(2,2-difluoro-1-(1-neopentyl-6-(2-(trifluoromethyl)phenyl)-1H-indol-3-yl)ethyl)-3-fluorocyclobutane-1-sulfonamide]	> 7.00
CC(C)(C)Cn1cc([C@H](NS(=O)(=O)C2CC2)C(F)F)c2cc(F)c(-c3ncc(F)cc3Cl)cc21 [Compound 93, (S)—N-(1-(6-(3-chloro-5-fluoropyridin-2-yl)-5-fluoro-1-neopentyl-1H-indol-3-yl)-2,2-difluoroethyl)cyclopropanesulfonamide]	> 7.00
Cc1ccccc1-c1ccc2c([C@H](NS(=O)(=O)C3CC(F)(F)C3)C(F)F)cn(CC(C)(C)C)c2c1 [Compound 30, (S)—N-(2,2-difluoro-1-(1-neopentyl-6-(o-tolyl)-1H-indol-3-yl)ethyl)-3,3-difluorocyclobutane-1-sulfonamide]	6.00 to 7.00
CC(C)(C)Cn1cc([C@H](NS(=O)(=O)C2CC2)C(F)F)c2cc(F)c(C3=CCOCC3)cc21 [Compound 16, (S)—N-(1-(6-(3,6-dihydro-2H-pyran-4-yl)-5-fluoro-1-neopentyl-1H-indol-3-yl)-2,2-difluoroethyl)cyclopropanesulfonamide]	> 7.00
CC(C)(C)Cn1cc([C@H](NS(=O)(=O)C2CC2)C(F)F)c2cc(F)c(-c3c(C(F)(F)F)ccnc3C#N)cc21 [Compound 99, N-((1S)-1-(6-(2-cyano-4-(trifluoromethyl)pyridin-3-yl)-5-fluoro-1-neopentyl-1H-indol-3-yl)-2,2-difluoroethyl)cyclopropanesulfonamide]	> 7.00
CC(C)(C)Cn1cc([C@H](NS(=O)(=O)C2CC2)C(F)F)c2cc(F)c(-c3ncc(F)cc3C(F)(F)F)cc21 [Compound 56, (S)—N-(2,2-difluoro-1-(5-fluoro-6-(5-fluoro-3-(trifluoromethyl)pyridin-2-yl)-1-neopentyl-1H-indol-3-yl)ethyl)cyclopropanesulfonamide]	> 7.00
CC(C)(C)Cn1cc([C@H](NS(=O)(=O)C2CC2)C(F)F)c2ccc(-c3cnccc3C(F)(F)F)cc21 [Compound 79, (S)—N-(2,2-difluoro-1-(1-neopentyl-6-(4-(trifluoromethyl)pyridin-3-yl)-1H-indol-3-yl)ethyl)cyclopropanesulfonamide]	> 7.00

More lines, now with the values ahead:

pEC50	Structure (SMILES)
> 7.00	CC(C)(C)Cn1cc([C@H](NS(=O)(=O)C2CC2)C(F)F)c2cc(F)c(-c3c(F)ccnc3C(F)(F)F)cc21 [Compound 131, N-((1S)-2,2-difluoro-1-(5-fluoro-6-(4-fluoro-2-(trifluoromethyl)pyridin-3-yl)-1-neopentyl-1H-indol-3-yl)ethyl)cyclopropanesulfonamide]
> 7.00	O=S(=O)(N[C@@H](c1cn(C2CCC2)c2nc(-c3cc(F)cnc3C(F)(F)F)c(F)cc12)C(F)F)C1CC1 [Compound 150, (S)—N-(1-(1-cyclobutyl-5-fluoro-6-(5-fluoro-2-(trifluoromethyl)pyridin-3-yl)-1H-pyrrolo[2,3-b]pyridin-3-yl)-2,2-difluoroethyl)cyclopropanesulfonamide]
> 7.00	O=S(=O)(N[C@@H](c1cn(C2CCC2)c2cc(-c3ccc(F)cc3C(F)(F)F)c(F)cc12)C(F)F)C1CC1 [Compound 154, (S)—N-(1-(1-cyclobutyl-5-fluoro-6-(4-fluoro-2-(trifluoromethyl)phenyl)-1H-indol-3-yl)-2,2-difluoroethyl)cyclopropanesulfonamide]
> 7.00	CC(C)(C)Cn1cc([C@H](NS(=O)(=O)C2CC2)C(F)F)c2cc(F)c(-c3cnccc3C(F)(F)F)cc21 [Compound 113, (S)—N-(2,2-difluoro-1-(5-fluoro-1-neopentyl-6-(4-(trifluoromethyl)pyridin-3-yl)-1H-indol-3-yl)ethyl)cyclopropanesulfonamide]
